Test results taken from ChEMBL document CHEMBL5728220, “[1,3]thiazin-2-amine compound, application, and pharmaceutical composition” (2021).

Molecular target: Beta-secretase 1 (Homo sapiens, UniProt P56817)
Test: Activity Assay: The activity assay for the compound of each example was carried out in this experimental example, and the detailed test method was as follows:1. The test compound was formulated as 10 μmol/L solution in dimethylsulfoxide;2. Starting from 10 μmol/L, by 3-fold serial dilution, the inhibitory activity of each compound against the enzyme was tested in singlet state at 10 doses;3. IC50 values of test compounds were finally obtained.

Beta-secretase 1, sequence (P56817 whole entry): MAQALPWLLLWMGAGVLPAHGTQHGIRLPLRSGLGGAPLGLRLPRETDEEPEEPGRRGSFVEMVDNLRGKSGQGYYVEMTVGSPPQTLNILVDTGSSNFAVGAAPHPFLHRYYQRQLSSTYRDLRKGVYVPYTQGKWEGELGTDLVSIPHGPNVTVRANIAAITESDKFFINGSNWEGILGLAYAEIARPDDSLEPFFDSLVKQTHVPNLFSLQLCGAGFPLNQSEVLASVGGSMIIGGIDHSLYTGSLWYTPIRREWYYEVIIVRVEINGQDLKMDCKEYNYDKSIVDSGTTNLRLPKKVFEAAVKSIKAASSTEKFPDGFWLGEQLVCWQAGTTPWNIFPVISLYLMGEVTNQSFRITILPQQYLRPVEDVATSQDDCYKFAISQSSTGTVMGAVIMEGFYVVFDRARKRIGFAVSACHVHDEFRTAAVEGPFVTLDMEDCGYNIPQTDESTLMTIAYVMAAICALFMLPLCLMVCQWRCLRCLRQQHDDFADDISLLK

IC50: 213 nM
SMILES: C[C@H]1C[C@@]2(F)CSC(N)=N[C@@]2(c2cccc(NC(=O)c3ccc(Cl)cn3)c2)CO1
